Values quoted from earlier work, collected in publication PMC4019989 (Clinical cancer research : an official journal of the …, 2009).

Tested on: animals
Conditions: cited from earlier work

CC(C)C[C@H](NC(=O)[C@H](Cc1ccccc1)NC(=O)c1cnccn1)B(O)O [bortezomib]
Toxicity of consecutive-day dosing: excessive toxicity
